Data taken from US20220362249A1, “METHODS FOR TREATING […]” (PTC Therapeutics MP, Inc., priority 2019, published 2022).
Read-outs that look alike come from different tables or passages of the source.

Legend:
[1] = Food effect on administration of sepiapterin: plasma sepiapterin and BH4 concentrations, fasted vs fed; format: in vivo, human; details: sepiapterin 10 mg/kg oral; for concentration at 0 h / concentration at 0.5 h / concentration at 1 h / concentration at 2 h / concentration at 4 h / concentration at 8 h / concentration at 12 h / concentration at 24 h: human, oral, 10 mg/kg; for concentration at 0 h: 0 h (predose)
Procedure: Method: Subjects received 2 oral doses of sepiapterin (10 mg/kg) separated by 1 week in a fasted and fed state. Subjects were fed a standard high-fat (approximately 50 percent of total caloric content of the meal) and high-calorie (approximately 800 to 1000 calories) meal starting 30 minutes prior to receiving their second oral dose of sepiapterin on Day 8.
Sampling for PK analysis occurred predose on Days 1 and 8 (within 30 minutes before dosing) and 0.5 hr, 1 hr, 2 hr, 4 hr, 8 hr, 12 hr, and 24 hr after the doses on Days 1 and 8. The blood concentrations of sepiapterin and BH4 were analyzed by MNG Labs.

[2] = Pharmacokinetic analysis of multiple doses of sepiapterin (once daily for 7 days, fed subjects); format: in vivo, human; details: human, plasma, fed; for AUC(0-t): read-out: AUC0-24; for Cmax: read-out: Cmax
Excerpt: Methods: Three cohorts of eight fed subjects each were randomized to receive once-daily sepiapterin or placebo for 7 days in a 6:2 ratio. A sentinel dose strategy was also used for administration of the highest sepiapterin dose.

[3] = plasma, fasted, read-out: Concentration in Plasma, Maximum
[4] = plasma, fasted, read-out: Concentration in Plasma, Mean
[5] = plasma, fasted, read-out: Concentration in Plasma, Median
[6] = plasma, fasted, read-out: Concentration in Plasma, Minimum
[7] = plasma, fed (high-fat meal), read-out: Concentration in Plasma, Maximum
[8] = plasma, fed (high-fat meal), read-out: Concentration in Plasma, Mean
[9] = plasma, fed (high-fat meal), read-out: Concentration in Plasma, Median
[10] = plasma, fed (high-fat meal), read-out: Concentration in Plasma, Minimum
[11] = 5 mg/kg, Day 1, sepiapterin 5 mg/kg once daily
[12] = 5 mg/kg, Day 7, sepiapterin 5 mg/kg once daily
[13] = 20 mg/kg, Day 1, sepiapterin 20 mg/kg once daily
[14] = 20 mg/kg, Day 7, sepiapterin 20 mg/kg once daily
[15] = 60 mg/kg, Day 1, sepiapterin 60 mg/kg once daily
[16] = 60 mg/kg, Day 7, sepiapterin 60 mg/kg once daily

C[C@H](O)[C@H](O)[C@H]1CNc2nc(N)[nH]c(=O)c2N1 [BH4, Tetrahydrobiopterin]
concentration at 0 h [1, 3]: 9 nM | concentration at 0 h [1, 4]: 7.62 nM | concentration at 0 h [1, 5]: 7.75 nM | concentration at 0 h [1, 6]: 5 nM | concentration at 0.5 h [1, 3]: 66.5 nM | concentration at 0.5 h [1, 4]: 25.6 nM | concentration at 0.5 h [1, 5]: 22.9 nM | concentration at 0.5 h [1, 6]: 13.8 nM | concentration at 1 h [1, 3]: 223 nM | concentration at 1 h [1, 4]: 155 nM | concentration at 1 h [1, 5]: 147 nM | concentration at 1 h [1, 6]: 98.5 nM | concentration at 2 h [1, 3]: 618 nM | concentration at 2 h [1, 4]: 413 nM | concentration at 2 h [1, 5]: 370 nM | concentration at 2 h [1, 6]: 271 nM | concentration at 4 h [1, 3]: 1130 nM | concentration at 4 h [1, 4]: 624 nM | concentration at 4 h [1, 5]: 635 nM | concentration at 4 h [1, 6]: 379 nM | concentration at 8 h [1, 3]: 457 nM | concentration at 8 h [1, 4]: 248 nM | concentration at 8 h [1, 5]: 233 nM | concentration at 8 h [1, 6]: 90.2 nM | concentration at 12 h [1, 3]: 162 nM | concentration at 12 h [1, 4]: 85.9 nM | concentration at 12 h [1, 5]: 75.3 nM | concentration at 12 h [1, 6]: 38.9 nM | concentration at 24 h [1, 3]: 37.4 nM | concentration at 24 h [1, 4]: 18.3 nM | concentration at 24 h [1, 5]: 15.3 nM | concentration at 24 h [1, 6]: 8.5 nM | concentration at 0 h [1, 7]: 11 nM | concentration at 0 h [1, 8]: 8.43 nM | concentration at 0 h [1, 9]: 8.5 nM | concentration at 0 h [1, 10]: 6 nM | concentration at 0.5 h [1, 7]: 76.4 nM | concentration at 0.5 h [1, 8]: 33.3 nM | concentration at 0.5 h [1, 9]: 30.9 nM | concentration at 0.5 h [1, 10]: 8.9 nM | concentration at 1 h [1, 7]: 369 nM | concentration at 1 h [1, 8]: 166 nM | concentration at 1 h [1, 9]: 160 nM | concentration at 1 h [1, 10]: 42.3 nM | concentration at 2 h [1, 7]: 1200 nM | concentration at 2 h [1, 8]: 587 nM | concentration at 2 h [1, 9]: 554 nM | concentration at 2 h [1, 10]: 299 nM | concentration at 4 h [1, 7]: 1570 nM | concentration at 4 h [1, 8]: 1100 nM | concentration at 4 h [1, 9]: 1010 nM | concentration at 4 h [1, 10]: 751 nM | concentration at 8 h [1, 7]: 926 nM | concentration at 8 h [1, 8]: 520 nM | concentration at 8 h [1, 9]: 485 nM | concentration at 8 h [1, 10]: 253 nM | concentration at 12 h [1, 7]: 261 nM | concentration at 12 h [1, 8]: 161 nM | concentration at 12 h [1, 9]: 142 nM | concentration at 12 h [1, 10]: 90.4 nM | concentration at 24 h [1, 7]: 40.1 nM | concentration at 24 h [1, 8]: 19.3 nM | concentration at 24 h [1, 9]: 16.1 nM | concentration at 24 h [1, 10]: 12.1 nM | Geometric mean ratio (fasted/fed, 90% CI) for AUC0-inf ([1]; plasma): 0.58 (0.47 to 0.71) | Geometric mean ratio (fasted/fed, 90% CI) for Cmax ([1]; plasma): 0.55 (0.45 to 0.68) | Cmax in the plasma, fed compared to fasted subjects (in words) [1]: much higher | Increase in overall exposure (AUC0-inf and AUClast), fed compared with fasted state [1]: 1.7 fold | Tmax [2, 11]: 4 h | AUC(0-t) [2, 11]: 994 ng·h/mL | Cmax [2, 11]: 147 ng/mL | Tmax [2, 12]: 4 h | AUC(0-t) [2, 12]: 1070 ng·h/mL | Cmax [2, 12]: 152 ng/mL | Tmax [2, 13]: 4 h | AUC(0-t) [2, 13]: 3030 ng·h/mL | Cmax [2, 13]: 496 ng/mL | Tmax [2, 14]: 4 h | AUC(0-t) [2, 14]: 3720 ng·h/mL | Cmax [2, 14]: 516 ng/mL | Tmax [2, 15]: 4.6 h | AUC(0-t) [2, 15]: 4560 ng·h/mL | Cmax [2, 15]: 597 ng/mL | Tmax [2, 16]: 4 h | AUC(0-t) [2, 16]: 4860 ng·h/mL | Cmax [2, 16]: 678 ng/mL | AUC(0-inf) ([2]; Day 1, sepiapterin 5 mg/kg once daily): 1010 ng·h/mL | AUC(0-inf) ([2]; Day 1, sepiapterin 20 mg/kg once daily): 3080 ng·h/mL | AUC(0-inf) ([2]; Day 1, sepiapterin 60 mg/kg once daily): 4670 ng·h/mL
